The test system of one series is yeast. The series is described as follows: Leavening of bread dough containing natamycin. It counts as cell-based. The settings on record: 12 ppm on flour weight; about 50 minutes, 85% relative humidity, 40° C. The procedure: (§1) A bread is made by preparing a dough containing flour, water, yeast, salt and a dough conditioner. Included in the dough mix is either natamycin or encapsulated natamycin or neither. […] All ingredients are mixed together thoroughly for between 3 and 10 minutes.
The dough is then given a short resting period after mixing (approx. 5 to 10 minutes) followed by scaling at the required weight. A second rest period is then applied following a second moulding in shape the dough as desired. The dough is then placed into a tin or tray. A leavening period for about 50 minutes at 85% relative humidity at 40° C. then follows.

The subject of the next series is moulds. The series is described as follows: Mould spoilage of sliced bread over shelf life. It counts as cell-based. The settings on record: 12 ppm on flour weight; normal shelf life period. Here is the method:
as §1
When the bread is cool, the natamycin content in the bread is assayed. The natamycin content from bread containing encapsulated natamycin is higher than that in the bread containing unencapsulated natamycin, indicating the heat protective benefit of encapsulated natamycin. The bread is then sliced and observed over the normal shelf life period for growth of moulds.

In series [1] the test system is common food spoilage yeasts and moulds. The settings on record: cited from earlier work.
The conditions of series [2]: reportedly; or more; cited from earlier work.
The conditions of series [3]: Davies et al. 1998; cited from earlier work.

For `C[C@@H]1C/C=C/C=C/C=C/C=C/[C@H](O[C@@H]2O[C@H](C)[C@@H](O)[C@H](N)[C@@H]2O)C[C@@H]2O[C@](O)(C[C@@H](O)C[C@H]3O[C@@H]3/C=C/C(=O)O1)C[C@H](O)[C@H]2C(=O)O` [natamycin], the “Leavening of bread dough” value with yeast is recorded as “poor leavening”. In the series on moulds, the “Mould spoilage / extension of shelf life of sliced bread” value was “Delay of mould spoilage is observed”. Further, in series [1], the “Concentrations inhibiting most strains” value is listed as 1-15 ppm.
Consider “nisin (ITSISLCTPGCKTGALMGCNMKTATCHCSIHVSK; Lantibiotic nisin-A; UniProt P13068 24-57, looked up) [polypeptide bacteriocin produced by the lactic acid bacteria, Lactococcus lactis subsp. lactis]”, for which, in series [2], the “Effective levels to preserve foodstuffs” value is on record as 25-500 IU/g. Moreover, the “pH of optimum stability” value in series [3] is 3.

Values taken from patent US20140141137A1, “Encapsulated Antimicrobial Material” (Danisco A/S, priority 2012, published 2014).
